Laboratory results published in patent US20260248787A9, “MEDICAMENT FOR TREATING CANCER COMPRISING OPTICALLY ACTIVE AZABICYCLO RING DERIVATIVE” (Sumitomo Pharma Co., Ltd., priority 2023, published 2026).

Tested on: MOLM-13 cells
Experiment: Tumor-bearing mice transplanted with MOLM-13 cells, with gilteritinib, T/C (Example 12)
Format: in vivo
Details: MOLM-13 tumor-bearing mice; oral; 30 mg/kg; 18 days
Protocol: The antitumor effects of the present compound and gilteritinib were evaluated. The present compound was weighed and dissolved in 0.5 w/v % Methyl Cellulose 400 solution to give the compound concentrations of 20 mg/mL and 10 mg/mL. Gilteritinib was weighed and suspended in 0.5 w/v % Methyl Cellulose 400 solution to give the compound concentrations of 3 mg/mL.
MOLM-13 cells (DSMZ) were intradermally implanted around the ventral region of 5-week old NOD. CB17-PrkdcSCID/J mice (female, The Jackson Laboratory Japan) at 1×10^6 cells/mouse. After confirming the engraftment of MOLM-13 cells 6 days after the transplantation, the present compound was orally administered to the mice at a dose of 100 mg/kg or 200 mg/kg, and gilteritinib was orally administered to the mice at a dose of 30 mg/kg, once a day for 18 days. The tumor volume was measured over time from the start of the administration, and the reduction effect of the tumor volume due to the compound-administration was evaluated. The tumor volume was calculated by the following formula using short axis and long axis of the tumor measured with an electronic caliper (Mitutoyo).
The control administration group in which only the solvent was administered and the test substance administration group were compared, and T/C was calculated using the following formula to evaluate the antitumor effect.

CCc1nc(C(N)=O)c(Nc2ccc(N3CCC(N4CCN(C)CC4)CC3)c(OC)c2)nc1NC1CCOCC1 [gilteritinib, reference compound]
T/C: 5.3%
